Key:
[1] = Effects of meglumine in a human subject (Example 11): blood lipids, lipoproteins, inflammation markers; assay type: in vivo; details: person, type 2 diabetes, 3×500 mg orally, with metformin
Method: A person, suffering from type 2 diabetes, overweight (height of 5 feet 1 inch, and weight of 129 pounds, as of month 0) and with difficulty to lose weight through dieting and exercise, was administered meglumine hydrochloride (3×500 mg) orally over the period of 8 months. Over the duration of the study the subject was also administered metformin orally to manage their type 2 diabetes. The subject's blood was analyzed for lipids, lipoprotein particles and apolipoproteins, and inflammation/oxidation markers.

[2] = Effects of meglumine in a human subject (Example 9); assay type: in vivo; details: orally daily, 7 months
Excerpt: A person suffering from high blood sugar was orally administered meglumine hydrochloride on a daily basis over the period of 7 months.

albumin/creatinine ratio = assay: Urinary albumin/creatinine; assay type: in vivo, KK.Cg-A^y/+/J and KK.Cg-A^+/+/J mice; details: 18 mM in drinking water, 12 weeks, not significant
Method: Urinary creatinine and albumin levels were measured in KK.Cg-A^y/+/J “mutant” diabetic mice and KK.Cg-A^+/+/J “control” mice treated with or without 18 mM meglumine hydrochloride in the drinking water for 12 weeks.

triglyceride = assay: Serum triglyceride levels; assay type: in vivo, KK.Cg-A^y/+/J diabetic mice; details: 18 mM in drinking water for 32 weeks; n=9; control 752.21±201.29; p<0.001
Method: Serum triglyceride levels were measured in KK.Cg-A^y/+/J diabetic mice treated with 18 mM meglumine hydrochloride in the drinking water for 32 weeks. […] A t-test was used to compare the mean values and a p<0.001 was calculated, indicating the decrease in plasma triglycerides in the meglumine treated mice is statistically significant.

[3] = Effects of meglumine in a human subject (Example 7); assay type: in vivo; details: person on a blood thinner; orally daily, 1 month
Excerpt: A person on a blood thinner medication was orally administered meglumine hydrochloride on a daily basis over the period of 1 month.

[4] = Effects of meglumine in a human subject (Example 8); assay type: in vivo; details: overweight person, 500-1,500 mg orally daily, 14 months
Method: A person was overweight and suffering from fatty liver, experienced sore joints, lacked energy and required extended recovery time after exercise & travel, was orally administered 500-1,500 mg of meglumine hydrochloride on a daily basis over the period of 14 months.

[5] = Effects of meglumine in a human subject (Example 5); assay type: in vivo; details: person, 500-1,500 mg orally daily over 5 years
Method: A person suffering from right knee joint pain, and otherwise in good health, was orally administered 500-1,500 mg of meglumine hydrochloride on a daily basis over the period of 5 years (with two months off).

[6] = Effects of meglumine in a human subject (Example 6); assay type: in vivo; details: orally daily, one month
Excerpt: A person suffering from high blood pleasure was orally administered meglumine hydrochloride on a daily basis over the period of one month.

[7] = Effects of meglumine in a human subject (Example 10); assay type: in vivo; details: person
Method: A person, suffering from scleroderma and type 2 diabetes, overweight and with difficulty to lose through dieting and exercise, experiencing less energy than when younger, was administered meglumine hydrochloride (500 mg to 2000 mg) orally almost every day over 5 years.

[8] = 500 mg to 2000 mg orally over 5 years

CNC[C@H](O)[C@@H](O)[C@H](O)[C@H](O)CO.Cl [meglumine hydrochloride]
Apo B:Apo A-I ratio (calculated) ([1]; month 8 (month 0: 0.73)): 0.45 | Lp(a) mass ([1]; month 8 (month 0: 5)): 6 mg/dL | HDL2-C ([1]; month 8 (month 0: 19)): 22 mg/dL | % sdLDL-C (calculated) ([1]; month 8 (month 0: 35)): 25% | HDL-P ([1]; month 8 (month 0: 44.3)): 43.7 μmol-L | sdLDL-C ([1]; month 8 (month 0: 56)): 28 mg/dL | Lipids: HDL-C ([1]; month 8 (month 0: 69)): 71 mg/dL | Apo B ([1]; month 8 (month 0: 133)): 79 mg/dL | Lipids: triglycerides ([1]; month 8 (month 0: 135)): 82 mg/dL | Lp-PLA2 ([1]; month 8 (month 0: 152)): 172 ng/mL | Lipids: LDL-C direct ([1]; month 8 (month 0: 160)): 111 mg/dL | Apo A-I ([1]; month 8 (month 0: 183)): 176 mg/dL | Lipids: non-HDL-C (calculated) ([1]; month 8 (month 0: 196)): 134 mg/dL | Lipids: total cholesterol ([1]; month 8 (month 0: 265)): 205 mg/dL | fibrinogen ([1]; month 8 (month 0: 332)): 334 mg/dL | LDL-P ([1]; month 8 (month 0: 2,250)): 1,529 nmol/L | hs-CRP ([1]; month 8 (month 0: <0.3)): 0.3 mg/L | blood glucose level ([2]; person with high blood sugar, decrease from 202): 75 mg/dL | weight loss ([2]; person with high blood sugar, without regain): 25 pounds | mental capacity ([2]; person): increased mental capacity | nail and hair health ([2]; person): improvement in nail and hair health | sexual stamina and sexual performance ([2]; person): dramatically improved sexual stamina and sexual performance | skin condition ([2]; person): improved | vitality or energy levels ([2]; person): improved vitality or energy levels | urinary albumin/creatinine ratio (albumin/creatinine ratio; KK.Cg-A^+/+/J control mice, without meglumine 2.5±1.2): 1.6±1.8 | urinary albumin/creatinine ratio (albumin/creatinine ratio; KK.Cg-A^y/+/J mutant diabetic mice, without meglumine 17.3±15.4): 12.4±8.7 | serum triglyceride levels (triglyceride): 322.66 ± 158.85 mg/dL | need for blood thinner medication [3]: able to discontinue the use of the blood thinner | mental capacity [4]: increased mental capacity | muscle strength [4]: improved muscle strength | nail and hair health [4]: improvement in nail and hair health | sexual stamina and sexual performance [4]: improved sexual stamina and sexual performance | skin condition [4]: improved | vitality or energy levels [4]: improved vitality or energy levels | weight lost per month [4]: approximately 0.5 kg | body weight on average ([4]; from 108 kg): 102 kg | body weight [5]: overall weight loss/control effect | increase in arm diameter [5]: 1 inch | mental capacity [5]: increased mental capacity | muscle-to-fat index [5]: increase in muscle-to-fat index | sexual stamina and sexual performance [5]: improved sexual stamina and sexual performance | skin condition [5]: improved | vitality or energy levels [5]: improved vitality or energy levels | military press weights ([5]; from 200 lb): 355 lb | blood pressure ([6]; person with high blood pressure, reduced from 220/110): around 130/78 | sleep and energy ([6]; person): better sleep and felt more energetic | body weight ([6]; person, at least one dress size): weight loss | weight lost ([7]; scleroderma and type 2 diabetes, 500 mg to 2000 mg orally almost every day, first two and one half years): over 30 pounds | insulin and creatine/albumin levels ([7]; type 2 diabetes, 500 mg to 2000 mg orally over 5 years): normal | blood glucose level ([7]; type 2 diabetes, minimum dose of 500 mg three times a day): improved | HDL levels ([7]; 500 mg to 2000 mg orally): stayed the same | Lp-PLA level ([7]; 500 mg to 2000 mg orally): went down | fibrinogen homocysteine levels ([7]; 500 mg to 2000 mg orally): stayed the same | eye sight [7, 8]: improved | mental capacity [7, 8]: has not deteriorated | overall energy levels [7, 8]: increased | overall skin tone and texture [7, 8]: improved | CRP level ([7]; 500 mg to 2000 mg orally, from 0.58): < 0.3 | LDL level ([7]; 500 mg to 2000 mg orally, from 209, within the last 16 months): 160 mg/dL | cholesterol levels ([7]; 500 mg to 2000 mg orally, from 300, without diet change or any medicines): 265 mg/dL
